Values quoted from earlier work as cited in patent US12037433B2, “(Co)polymers of hydrophobic monomers and methods of making and use thereof” (BASF SE, priority 2018, dated 2024).

How the values were obtained:
[1] = for solubility in water, measured at 20° C.: additional hydrophobic monomers

Structure (SMILES) | solubility in water, measured at 20° C. [1] [g/100 g water] | Partitioning Coefficient n-octanol/water [log Kow at 25° C.] | Water Solubility at 20° C. [1] [µg/mL]
C=C(C)C(=O)OCCCCCCCCCCCCCCCCCC [Stearyl Methacrylate (SMA), Stearyl Methacrylate] | – | 9.62 | –
C=CC=C [butadiene] | 0.08 | – | –
C=C(C)C(=O)OC1CCCCC1 [Cyclohexyl methacrylate (CHMA), Cyclohexyl methacrylate] | – | 3.54 | 100
C=CC(=O)OCCCCCCCCCCCCCCCCCC [Stearyl Acrylate (SA), Stearyl Acrylate] | – | 9.28 | –

The remaining lines, values ahead:

solubility in water, measured at 20° C. [1] [g/100 g water] | Partitioning Coefficient n-octanol/water [log Kow at 25° C.] | Water Solubility at 20° C. [1] [µg/mL] | Structure (SMILES)
0.03 | – | – | C=Cc1ccccc1 [styrene]
– | 6.45 | 30 | C=C(C)C(=O)OCCCCCCCCCCCC [Lauryl Methacrylate (LMA), Lauryl Methacrylate]
0.08 | – | – | C=COC(=O)C(C)(C)C [vinyl neo-pentanoate]
– | 6.5 | 50 | C=C(C)C(=O)OCCCCCCCCCCCCCCCCC [Heptadecyl methacrylate (C17 MA), Heptadecyl methacrylate]
– | 6.13 | 40 | C=CC(=O)OCCCCCCCCCCCC [Lauryl Acrylate (LA), Lauryl Acrylate]
– | 9.2 | 40 | C=CC(=O)OCCCCCCCCCCCCCCCCC [Heptadecyl acrylate (C17 A), Heptadecyl acrylate]
